Assay results from ChEMBL document CHEMBL1201862, “PubChem BioAssay data set” (2004).
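1) Cells in 96-well plates. 2) Compound, 48 h, 5 concentrations. 3) Linear interpolation between surrounding doses. 4) Unreached endpoint = highest concentration. GI50: concentration for 50% inhibition of growth.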 The source made the active and inactive calls. Cut-off read from the data, not from the text of the source: active = GI50 up to about 1.1 µM and inactive = higher.

Tests used:
Assay in all cases: NCI-60 cell line screen, 48 h
[1] = tested on: DMS-114
[2] = tested on: Malme-3M
[3] = tested on: SF-539
[4] = tested on: KM12
[5] = tested on: K562
[6] = tested on: SK-MEL-2
[7] = tested on: TK-10
[8] = tested on: DLD-1
[9] = tested on: HT-29
[10] = tested on: NCI-H460
[11] = tested on: HL-60
[12] = tested on: IGROV-1
[13] = tested on: OVCAR-5
[14] = tested on: SK-OV-3
[15] = tested on: A498
[16] = tested on: SN12C
[17] = tested on: RXF 393
[18] = tested on: RXF 631
[19] = tested on: SW-620
[20] = tested on: 786-0
[21] = tested on: U-251
[22] = tested on: EKVX
[23] = tested on: SK-MEL-28
[24] = tested on: A549
[25] = tested on: UO-31
[26] = tested on: ACHN
[27] = tested on: HOP-62
[28] = tested on: UACC-257
[29] = tested on: LXFL 529
[30] = tested on: OVCAR-3
[31] = tested on: UACC-62
[32] = tested on: MOLT-4
[33] = tested on: OVCAR-4
[34] = tested on: NCI-H23
[35] = tested on: COLO 205
[36] = tested on: M14
[37] = tested on: DMS-273
[38] = tested on: HOP-92
[39] = tested on: OVCAR-8
[40] = tested on: SNB-19
[41] = tested on: HCC 2998
[42] = tested on: LOX IMVI
[43] = tested on: XF498
[44] = tested on: SNB-75
[45] = tested on: SF-295
[46] = tested on: CAKI-1
[47] = tested on: SNB-78
[48] = tested on: KM-20L2
[49] = tested on: SK-MEL-5
[50] = tested on: RPMI-8226
[51] = tested on: SR
[52] = tested on: NCI-H522
[53] = tested on: CCRF-CEM
[54] = tested on: M19-MEL
[55] = tested on: HCT-116
[56] = tested on: SF-268
[57] = tested on: NCI-H226
[58] = tested on: HOP-18
[59] = tested on: HCT-15
[60] = tested on: MCF7
[61] = tested on: BT-549
[62] = tested on: PC-3
[63] = tested on: MDA-MB-231
[64] = tested on: T47D
[65] = tested on: NCI/ADR-RES
[66] = tested on: DU-145
[67] = tested on: MDA-N

Measured: GI50

[N-]=[N+]=NC1C(Cl)C(=O)NC(=O)N1[C@H]1C[C@H](O)[C@@H](CO)O1 (stereo partly drawn)
inactive: [1] > 100 µM | [2] 13.3 µM | [3] > 100 µM | [4] > 100 µM | [5] > 100 µM | [6] > 100 µM | [7] > 100 µM | [8] > 100 µM | [9] > 100 µM | [10] > 100 µM | [11] > 100 µM | [12] > 100 µM | [13] > 100 µM | [14] > 100 µM | [15] > 100 µM | [16] > 100 µM | [17] > 100 µM | [18] > 100 µM | [19] > 100 µM | [20] > 100 µM | [21] > 100 µM | [22] > 100 µM | [23] > 100 µM | [24] > 100 µM | [25] > 100 µM | [26] > 100 µM | [27] > 100 µM | [28] > 100 µM | [29] > 100 µM | [30] > 100 µM | [31] > 100 µM | [32] > 100 µM | [33] > 100 µM | [34] > 100 µM | [35] > 100 µM | [36] > 100 µM | [37] > 100 µM | [38] > 100 µM | [39] > 100 µM | [40] > 100 µM | [41] > 100 µM | [42] > 100 µM | [43] > 100 µM | [44] > 100 µM | [45] > 100 µM | [46] > 100 µM | [47] > 100 µM | [48] > 100 µM

CCN(CC)CCCCC1CCN(CC(=O)N2c3ccccc3NC(=O)c3ccccc32)CC1
inactive: [49] > 100 µM | [1] > 100 µM | [2] 81.5 µM | [3] > 100 µM | [4] > 100 µM | [5] > 100 µM | [6] > 100 µM | [7] > 100 µM | [8] > 100 µM | [9] 46.7 µM | [11] > 100 µM | [14] > 100 µM | [15] > 100 µM | [16] > 100 µM | [50] > 100 µM | [18] > 100 µM | [19] > 100 µM | [20] > 100 µM | [22] > 100 µM | [23] > 100 µM | [24] > 100 µM | [25] > 100 µM | [27] > 100 µM | [28] 48.1 µM | [29] > 100 µM | [30] > 100 µM | [31] > 100 µM | [32] > 100 µM | [33] > 100 µM | [34] 55.6 µM | [35] > 100 µM | [51] > 100 µM | [36] 19.4 µM | [52] > 100 µM | [37] > 100 µM | [38] > 100 µM | [53] 64.9 µM | [54] > 100 µM | [39] > 100 µM | [55] > 100 µM | [40] > 100 µM | [41] > 100 µM | [43] > 100 µM | [44] > 100 µM | [45] > 100 µM | [56] > 100 µM | [46] > 100 µM | [47] > 100 µM | [57] > 100 µM

CC1=C(C(=O)Nc2c(C)cccc2C)C(c2ccc3c(c2)OCO3)C(C(=O)Nc2c(C)cccc2C)=C(C)N1
inactive: [1] 16.6 µM | [2] 20.2 µM | [3] 19.2 µM | [4] 15.3 µM | [5] 13.4 µM | [7] 24.7 µM | [8] 19.3 µM | [9] 16.2 µM | [10] 18.5 µM | [11] 16.3 µM | [12] 4.2 µM | [13] 19.1 µM | [14] 77.3 µM | [16] 16.7 µM | [17] 16.5 µM | [18] 16.7 µM | [19] 18.2 µM | [20] 13.7 µM | [21] 15.5 µM | [22] 21.5 µM | [23] 22.2 µM | [24] 19.7 µM | [25] 16.9 µM | [26] 17.5 µM | [27] 23.1 µM | [28] 16.6 µM | [29] 18 µM | [30] 36.3 µM | [31] 2.7 µM | [32] 15 µM | [33] 30.3 µM | [34] 16.1 µM | [35] 21.9 µM | [51] 22.5 µM | [36] 18.1 µM | [52] 14.9 µM | [58] 18.9 µM | [53] 7.36 µM | [39] 18.1 µM | [55] 14.3 µM | [40] 15.3 µM | [41] 18.1 µM | [42] 13.7 µM | [44] 17.8 µM | [45] 16.5 µM | [56] 19.4 µM | [46] 25.1 µM | [47] 17.6 µM | [57] 17.5 µM | [48] 15.5 µM

OCCN1CCN2C=C(C3CCCC4N(CCO)CCN34)CCC21 (stereo not drawn)
inactive: [49] 41.9 µM | [1] 25.4 µM | [2] > 79.8 µM | [3] 33.7 µM | [4] > 95.7 µM | [5] 11.6 µM | [6] 23.5 µM | [7] > 53.5 µM | [8] 22.7 µM | [9] 68.9 µM | [10] > 100 µM | [11] 5.28 µM | [12] 76 µM | [13] > 100 µM | [14] > 69.2 µM | [15] > 100 µM | [16] 39.5 µM | [50] 8.04 µM | [17] 20.3 µM | [19] 23.6 µM | [20] 41.7 µM | [21] 41.4 µM | [22] > 69.7 µM | [23] 42 µM | [24] > 100 µM | [25] 97.3 µM | [26] > 49.2 µM | [27] > 100 µM | [28] > 100 µM | [29] 43.8 µM | [30] 35.4 µM | [31] 28.1 µM | [32] 13.9 µM | [33] 52.8 µM | [34] 43 µM | [35] > 65.2 µM | [51] 5.68 µM | [36] 44.7 µM | [52] > 44 µM | [37] 49.2 µM | [58] > 100 µM | [38] > 60.8 µM | [53] 5.56 µM | [54] 34.7 µM | [39] 35.2 µM | [55] 24.9 µM | [40] > 100 µM | [41] > 100 µM | [42] 26.7 µM | [43] 48.1 µM | [44] 34.8 µM | [45] 98.4 µM | [56] 49.8 µM | [46] 48 µM | [47] 37.9 µM | [57] > 91 µM | [48] > 100 µM
27.9 µM: [59]

COc1cccc2c1C(=O)c1c(O)c3c(c(O)c1C2=O)C[C@@](O)(C(=O)CO)C[C@@H]3OC1CC(N)CC(C)O1 (stereo partly drawn)
active: [49] 0.0371 µM | [2] 0.0284 µM | [8] 0.092 µM | [9] 0.035 µM | [60] 0.024 µM | [61] 0.0283 µM | [62] 0.027 µM | [13] 0.074 µM | [14] 0.0521 µM | [63] 0.0612 µM | [16] 0.0299 µM | [64] 0.0233 µM | [18] 0.0301 µM | [20] 0.0247 µM | [22] 0.0847 µM | [27] 0.0221 µM | [28] 0.051 µM | [29] 0.0462 µM | [66] 0.0267 µM | [30] 0.0547 µM | [31] 0.0254 µM | [33] 0.046 µM | [35] 0.042 µM | [51] 0.00266 µM | [36] 0.0803 µM | [52] 0.038 µM | [58] 0.0348 µM | [38] 0.0416 µM | [53] 0.0267 µM | [54] 0.0314 µM | [41] 0.0706 µM | [44] 0.0402 µM | [45] 0.0239 µM | [56] 0.0451 µM | [67] 0.0955 µM | [47] 0.128 µM | [48] 0.0695 µM
inactive: [65] 3.67 µM
